For this test, the system named is HC2 20d2/c cells, an NIH-3T3 cell line engineered to overexpress EGFRvIII. Briefly: tumor regression / survival experiments in mice bearing EGFRvIII-overexpressing tumors. In kind it is in vivo, NIH Swiss mice. As to conditions: for survival / effectiveness compared with Peptide G:KLH: Table 1 experiments; for survival / effectiveness compared with Peptide G:KLH / percent survival compared with Peptide G:KLH: in words; for percent survival compared with Peptide G:KLH: overall survival data (Table 2). Here is the method:
The conjugated peptide vaccines were tested in tumor regression experiments and survival results were compared among animals treating with one of the conjugated peptide vaccines or KLH only.
Additional experiments were performed repeating the experiments described above.
For all experiments, the peptides were synthesized with the sequence as indicated with the cysteine at the carboxy terminus added for the purposes of conjugation. Peptides were then conjugated at a 1:1 w/w ratio to maleimide activated Keyhole Limpet Hemocyanin (KLH) for 24 hours. Following conjugation, the peptide:KLH conjugate was dialyzed against PBS to remove unconjugated peptide
NIH Swiss mice were inoculated subcutaneously in the right hand flank with 2×10^6 HC2 20d2/c cells, an NIH-3T3 cell line engineered to overexpress EGFRvIII. This cell line has been previously used to study anti-tumor responses to SEQ ID NO:2 conjugated to KLH (Moscatello et al., Cancer Res. 57:1419). On the 7th day following inoculation, mice were immunized with 100 μg of conjugated peptide in 100 μl of PBS emulsified with 100 μl of Freund's complete adjuvant. On the 14th day, mice were immunized with 100 μg of peptide in 100 μl of PBS emulsified with 100 μl of Freund's incomplete adjuvant.

[1] abbreviates: Table 1, first experiments, s.c. tumor, immunized day 7 and day 14 with 100 μg conjugated peptide in Freund's adjuvant.
[2] abbreviates: Table 2, overall survival data compiled after additional repeat experiments, immunized day 7 and day 14 with 100 μg.

No end group written: not given here.

For “LEEKKANYVVTDHC:KLH (also: conjugated to KLH, site not given here) [Peptide A: KLH]”, the “survival / effectiveness compared with Peptide G:KLH” value is listed as “better survival rates” and the “percent survival compared with Peptide G:KLH” value (“percent survival” below) is recorded as “higher percent survival”. Moreover, the Survival under setting [1] is reported as 90%. Besides, the Survival under setting [2] worked out at 80%.
“Keyhole Limpet Hemocyanin [KLH only, reference compound]”: the Survival is on record as 47% under setting [1] and 32% under setting [2].
As to “LEEKKVNYVVTDHC:KLH (also: conjugated to KLH, site not given here) [Peptide V: KLH]”, the “survival / effectiveness compared with Peptide G:KLH” value is “better survival rates” and the “percent survival” value is recorded as “higher percent survival”. For the same substance, the Survival under setting [1] was determined as 70%. For the same substance, the Survival under setting [2] was determined as 70%.
Consider “LEEKKPNYVVTDHC:KLH (also: conjugated to KLH, site not given here) [Peptide P: KLH]”, for which the “survival / effectiveness compared with Peptide G:KLH” value is recorded as “better survival rates” and the “percent survival” value is recorded as “higher percent survival”. In addition, the Survival under setting [1] is listed as 70%. In addition, the Survival under setting [2] is on record as 65%.

Source of the values: US9694060B2, “Peptide vaccines based on the EGFRvIII sequence for the treatment of tumors” (The Board of Trustees of the Leland Stanford Junior …, priority 2012, dated 2017).
